In general, IC50 refers to the concentration at which inhibition is half-maximal. Lower therefore signals higher potency.

This passage reports IC50 results from ChEMBL document CHEMBL5335864 (ACS Med Chem Lett, 2024).

The assay deals with Plasmodium falciparum. Put plainly: Antiplasmodial activity against Plasmodium falciparum NF54 infected in human erythrocytes measured after 48 hrs by [3H]hypoxanthine incorporation assay. The format is functional, organism-based. Conditions: NF54, Erythrocyte.

In turn, `FC1CN(CCc2ccc(-c3noc(C(F)(F)F)n3)cc2)CCC1Nc1nc2ccccc2[nH]1` (stereo unspecified) displayed an IC50 of 219 nM.
